Reference: patent publication US20050112185A1, “Positively charged lipid and liposome with the lipid” (priority 2002, published 2005)

Assays:
[1] = tested on: 293 human kidney cell line; experiment: Gene delivery efficiency (luciferase gene) with varied amounts of DNA, 293 cells; format: cell-based; conditions: DNA:liposome 1:12 (w/w), luciferase gene 0.5, 1, 2 and 5 μg tested, FIGS. 1a-1c
Method: (§1) For the evaluation of gene delivery efficiency of liposomes with varied amount of DNA, DNA-liposome complex was prepared by mixing DNA and liposome(1:12, w/w) in 500 μl of serum-free medium, while varying the amounts of luciferase gene as 0.5 μg, 1 μg, 2 μg and 5 μg. […] After incubation, media were discarded, cells were lysed by adding 100 μl of Luciferase cell culture lysis reagent(Promega, USA), and centrifuged at 14000 rpm for 10 sec. And then, 10 μl of supernatant was mixed with 20 μl of a substrate of luciferase, and luminescence was measured by using Luminometer(Mini lumat LB9506, EG&G BERTHOLD). Proteins in each well were quantitated by DC protein assay(Bio-rad, USA)(see: FIGS. 1a-1c and 2a-2c).

[2] = tested on: mouse melanoma cell B16BL6; experiment: Gene delivery efficiency (luciferase gene) with varied amounts of DNA, B16BL6 cells; format: cell-based; conditions: DNA:liposome 1:12 (w/w), luciferase gene 0.5, 1, 2 and 5 μg tested, FIGS. 2a-2c
Method: Mouse melanoma cells […] were inoculated in MEM(minimum essential medium, Gibco-BRL, USA) containing 5% (v/v) fetal bovine serum, streptomycin and penicillin, and incubated in an incubator(NAPCO, USA) under an environment of 5% (v/v) CO2 at 37° C., which were aliquoted in 24-well plate to reach the cell density of 1×10^5 cell/well or 5×10^4 cell/well, and further incubated for 24 hrs to stabilize the cells.
as §1

Substance | amount of DNA showing the highest gene delivery efficiency [1] [µg] | amount of DNA showing the highest gene delivery efficiency [2] [µg]
lysine-glutamate-tetradecanol [KE-DM] | 2 | –
lysine-aspartate-tetradecanol [KD-DM] | 1 | 1
lysine-aspartate-hexadecanol [KD-DP] | 2 | 0.5
